In US20200378956A1, “HUMAN MICROPHYSIOLOGICAL CELL SYSTEM FOR LIVER DISEASE CONVERSTION PROV 1-18585 AND PROV 2-19154” (EMULATE, INC., priority 2018, published 2020):
Read-outs that look alike come from different tables or passages of the source.

Tests used:
hepatocytes = conditions: both the hepatocyte channel and the LSEC/Kupffer-cell channel
[1] = tested on: Human hepatocyte conventional plate cell culture; assay: Bosentan ALT release, conventional plate cell culture; type: cell-based; conditions: various concentrations of bosentan
Text: (§1) FIG. 49A-B presents exemplary data showing the release of alanine transaminase (ALT) in response to various concentrations of bosentan. • FIG. 49A: Human hepatocyte microchip culture. • FIG. 49B: Human hepatocyte conventional plate cell culture.
(§2) These microfluidic systems also enable high-resolution, real-time imaging coupled with a capability for in vitro analysis of biochemical, genetic and metabolic activities, all in the functional context of living tissue. This technology can be used to evaluate tissue development, organ physiology and/or disease etiology. In the context of drug discovery, including safety and efficacy, this technology is especially valuable for the study of molecular mechanisms of action, prioritization of lead candidates, toxicity testing and biomarker identification. Bhatia et al., “Microfluidic organs-on-chips” Nature Biotechnology 2014, 32(8):760-772. […] See, FIGS. 54A-B.

[2] = tested on: human hepatocyte microchips; assay: Bosentan ALT release, hepatocyte microchip culture; type: cell-based; conditions: various concentrations of bosentan
Text: as §1, §2

[3] = tested on: Bile Salt Export Pump (BSEP, ABCB11); assay: Bosentan effect on co-transporter gene expression; type: cell-based; conditions: after three (3) days of culture
[4] = tested on: sodium/bile acid cotransporter; assay: Bosentan effect on co-transporter gene expression; type: cell-based; conditions: after three (3) days of culture
Text: FIG. 50A-B presents exemplary data showing the effect of bosentan on co-transporter gene expression. • FIG. 50A: Sodium/bile co-transporter. • FIG. 50B: Bile Salt Export Pump (BSEP, ABCB11) co-transporter.
as §2

2D models = conditions: i.e., ~0.4%; cited from earlier work
Liver-Chip hepatocytes = assay: Ethanol / LPS dosing Liver-Chip study (FIG. 81-83)
Procedure: Oxidative stress was measured by staining of ROS-positive hepatocytes with MitoSOX™ Red (a fluorogenic dye specifically targeted to mitochondria in live cells. Oxidation of MitoSOX™ Red reagent produces red fluorescence.
Oxidation (red) is shown in the lower row stained with MitoSOX™ Red.

[5] = tested on: tri-culture of hepatocytes and Kupffer cells; conditions: for cholesterol release: ethanol 0.04-0.16% BAC
[6] = tested on: co-culture hepatocyte microchip; assay: Fructose-induced liver injury on co-culture hepatocyte microchip; type: cell-based
Procedure: The cell culture media effluent was analyzed for triglycerides, glycogen and glucose from both the top and bottom channels of the microchannel. See, Example 1. Cell imaging analysis of lipid droplet accumulation was performed with AdipoRed® and visualized with brightfield imaging.
The hepatocyte cells and endothelial cells were seeded and incubated as a co-culture in a hepatocyte microchip and samples were collected a specific time points. See, FIG. 32.
The specific media compositions were as follows: • Liver culture media: • Top Channel: DMEM (LG) 0% FBS, NEAA 1:200, ITSG 1:10,000, Vitamin C & dexamethasone
To each media, either a 1:1 glucose:fructose ratio (low fructose) or a 0.7:1.4 glucose:fructose ratio (high fructose) is added.

[7] = tested on: co-culture of hepatocytes and liver sinusoidal endothelial cells (LSECs); assay: In vitro NAFLD model, high fat diet on co-culture hepatocyte microchip; type: cell-based
Procedure: For example, a co-culture of hepatocytes and liver sinusoidal endothelial cells (LSECs) cultured on a hepatocyte microchip were exposed to a high fat diet comprising of oleic acid ([…]) for up to two days. Accumulating fat droplets within these cultured hepatocytes were identified with AdipoRed® or NileRed® staining. […] See, FIG. 15. […] See, FIGS. 16A-C. Additionally, the number of lipid droplets were quantitated as well as the accompanying glucose level was determined. […] See, FIG. 18A. […] See, FIG. 18B. Photomicrographs of LSEC mitochondrial function correlate in a positive manner with twenty-four (24) hours of a high fat cell diet. See, FIG. 18C. Photomicrographs of hepatocyte mitochondrial function correlate in a positive manner after twenty-four (24) hours of a high fat cell diet. See, FIG. 18D. […] See, FIG. 19. […] The high fat diet exposure between 24-48 hours was also performed with and without the insulin-secretion agonist, Exendin. See, FIG. 60A. […] See, FIGS. 60B, 62C, 17A-B.

[8] = tested on: tri-culture of hepatocytes, liver sinusoidal endothelial cells (LSECs) and Kupffer cells; assay: In vitro NASH model, high fat diet and LPS on tri-culture hepatocyte microchip; type: cell-based
Procedure: For example, a tri-culture of hepatocytes, liver sinusoidal endothelial cells (LSECs) and Kupffer cells were cultured on a hepatocyte microchip and exposed to a high fat diet comprising oleic acid. Subsequently, LPS (1 μg/ml ) was added to the high fat diet media to induce a Kupffer cell-mediated inflammatory response. […] See, FIG. 20B. When oleic acid exposure is supplemented with LPS the observance of stained lipid droplets decreases. See, FIG. 20C. […] See, FIG. 20D. […] See, FIG. 21A. […] See, FIG. 22A cf FIG. 22B. […] See, FIG. 23.

[9] = tested on: hepatocyte microchip co-culture system (e.g., Liver-Chip); assay: Fatty acid-induced steatosis in WEN/CSC media (Example IV); type: cell-based
Procedure: This example was performed on a hepatocyte microchip co-culture system (e.g., Liver-Chip). As a control condition, normal cell culture media “diet” (WEN media) was flowed through the top channel of the microchip, while a CSC 10% SFB was flowed through the bottom channel of the microchip. […] The following measurements were taken: i) Lipid drop staining with Nile Red®; ii) cholesterol quantification; iii) free fatty acid quantification; and iv) glucose quantification.

hepatic stellate cells = assay: Fibrosis development in the Liver-Chip; type: cell-based; conditions: FIG. 46B
[10] = tested on: quadruple co-culture of hepatocytes, Kupffer cells, LSEC cells and Stellate cells; assay: Quadruple co-culture cell activation; type: cell-based; conditions: FIG. 13B
[11] = liver culture media, 48 hours, low or high fructose
[12] = oleic acid (0.1 to 0.5 μM) for up to two days

Nc1c2c(nc3ccccc13)CCCC2 [Tacrine, tacrine]
IL-1-α (hepatocytes): accumulation
IL-1beta (hepatocytes): accumulation
IL-6 (hepatocytes): accumulation

COc1ccccc1Oc1c(NS(=O)(=O)c2ccc(C(C)(C)C)cc2)nc(-c2ncccn2)nc1OCCO [bosentan]
secreted alanine transaminase (ALT) levels [1]: lack of response
secreted alanine transaminase (ALT) levels [2]: dose dependent increment
BSEP transporter expression levels [3]: reduce sodium/bile acid cotransporter and BSEP transporter expression levels in a dose-dependent fashion
sodium/bile acid cotransporter expression levels [4]: reduce sodium/bile acid cotransporter and BSEP transporter expression levels in a dose-dependent fashion

CCO [ethanol]
ethanol concentration significantly decreasing viability (2D models): greater than 100 mM
ethanol concentration at which modifications in glucose release levels were observed (Liver-Chip hepatocytes): above 0.32%
alcohol-induced steatosis (Liver-Chip hepatocytes; after ethanol-free recovery): reverted
cholesterol release (effluent) (Liver-Chip hepatocytes; ethanol at physiologically relevant BAC): increase of cholesterol release
cholesterol storage (Liver-Chip hepatocytes; ethanol dosing): increased cholesterol and glycogen storage
glycogen storage (Liver-Chip hepatocytes; ethanol dosing): increased cholesterol and glycogen storage
hepatocyte viability (albumin as viability marker) (Liver-Chip hepatocytes; ethanol dosing condition): sublethal
lipid droplet accumulation ([5]; 0.16% ethanol, 120 hours of recovery (Day 7)): statistically significant as compared to vehicle control
cholesterol levels ([5]; after 48 h of recovery): back to normal
cholesterol release ([5]; 24 h): increased
cholesterol release ([5]; 48 h): intensified

O=C(CO)[C@@H](O)[C@H](O)[C@H](O)CO [fructose]
extracellular glycogen levels ([6]; 24 or 72 hours): No significant differences
triglyceride levels ([6]; 24 or 72 hours, or intestinal effluent media): No significant differences
glucose in microchannel effluent ([6]; 48 h, fructose media): observed to increase
glucose in microchannel effluent ([6]; intestinal effluent culture media, with or without fructose): no difference observed
hepatocyte cell number [6, 11]: decreased hepatocyte cell number
hepatocyte cell size [6, 11]: increased hepatocyte cell size
hepatocyte viability [6, 11]: no effect on hepatocyte viability
cholesterol levels ([6]; liver media or intestinal effluent media, 24, 48 or 72 hours): failed to significantly increase cholesterol levels
extracellular glycogen levels ([6]; low or high fructose, liver media or intestinal effluent media, 48 hours): dose-dependent decrease
triglyceride levels ([6]; low or high fructose, liver media, 48 hours): dose-dependent increase

CCCCCCCC/C=C\CCCCCCCC(=O)O [oleic acid]
cholesterol concentration ([7]; high fat diet): observed to increase
free fatty acids concentration ([7]; high fat diet): observed to increase
number of nuclei (hepatocyte proliferation or polyploidy) ([7]; high fat diet): increase in the number of nuclei
LSEC morphology by bright field imaging [7, 12]: developed an injury morphology
lipid droplets accumulation inside co-cultured hepatocytes [7, 12]: significant increase of lipid droplets accumulation
extracellular glucose concentration ([7]; oleic acid (0.1 to 0.5 μM), 48 hours): significantly higher
cell viability (mitochondrial function) ([7]; two day high fat diet): did not result in any significant reduction in cell viability
oxidative stress markers, reactive oxygen species (ROS) ([7]; two day high fat diet): increase in reactive oxygen species
lipid droplet accumulation, cells proximal to channel inlet compared to channel outlet ([8]; 48 hours of high fat diet of oleic acid): higher density of lipid droplet accumulation
observable fat droplets in the hepatocytes ([8]; oleic acid only vs control): significant increase in observable fat droplets
LSEC morphology ([9]; 1 μM Oleic acid): alterations in morphology
hepatocyte lipid droplet accumulation over time ([9]; 1 μM Oleic acid, 0, 40 and 64 hours): progressive accumulation
hepatocyte free fatty acids ([9]; 1 μM Oleic acid, forty hours): shown to increase
lipid droplets in hepatocytes ([9]; high oleic acid concentration media, FIG. 7A): Increased concentration of lipid droplets
LSEC morphological features ([9]; oleic acid, 5 μM, 2 day exposure, FIG. 7B): Morphological features indicative of injury/stress exposure

TGF-α: factor printed as activating hepatic stellate cells in FIG. 46B
hepatic stellate cell activation (hepatic stellate cells): activation of hepatic stellate cells

TGF-β: growth factor used for stellate cell activation
stellate cell activation (α-SMA staining) [10]: Stellate cell activation
